Source: a melting point compilation (Tetko et al.)

| Structure (SMILES) | melting point |
| --- | --- |
| CCN(CC)CC(=O)Nc1c(C)cc(C)cc1C | 44 °C |
| O=C(Cn1c(=O)sc2ccc(Cl)cc21)N1CCN(CCO)CC1 | 160 °C |
| O=C(Nc1cccc2ccccc12)Nc1cccc2ccccc12 | 296 °C |
| CNCc1ccc(-c2cncnc2)cc1 | 45 to 46 °C |
| CC(C)[C@H](N)C(O)(c1ccccc1)c1ccccc1 | 92 °C |
| COC(=O)C(c1ccccc1)c1ccccc1 | 60 °C |
| O=C(Nc1ccc(Br)cc1)c1cc(Br)ccc1O | 242 °C |
| FC(F)(F)c1cccc(CSc2nnc(S)s2)c1 | 140 to 142 °C |
| CCOC(=O)CC(O)(CC(=O)OCC)C(=O)OCC | -46 °C |
| CCCCCCCCCCCCCCCCCCCCc1ccccc1 | 44 °C |
| CCC(=NNc1cccc(NN=C(CC)C(=O)O)c1)C(=O)O | 190 °C |
| O=C(OC(=O)C(Cl)Cl)C(Cl)Cl | 29 °C |
| Oc1ccc2c3c1OC1C(O)C=CC4C(C2)NCCC341 (stereo unspecified) | 273 °C |
| CC1(C)C2CCC1(C)C(C(=O)O)OC2=O (stereo unspecified) | 201 °C |
| COc1cc(C=O)ccc1OC(C)=O | 76 °C |
| Nc1cc(Cl)cnc1Cl | 124 to 125 °C |
| Brc1ccc2sccc2c1 | 47 to 48 °C |
| CCCOC1CCC2C3CC=C4CC5(CCC4(C)C3CCC12C)OCCO5 (stereo unspecified) | 213 to 214 °C |
| CNCCCN1c2ccccc2CCc2ccccc21 | 25 °C |
| COc1ccc(-c2csc(/C(C#N)=N/Nc3cccc(C)c3C)n2)cc1 | 164 °C |
| FC(F)(F)c1nnc(S)n1/N=C/c1ccccc1 | 233 °C |
| CCC(C)=NNc1ccc([N+](=O)[O-])cc1[N+](=O)[O-] | 117 °C |

| Structure (SMILES) | melting point |
| --- | --- |
| C#CC1(O)CCC2C3CCC4=CC(O)CCC4(C)C3CCC21C (stereo unspecified) | 204 °C |
| CC12CCC3C(CCC4CCCCC43C)C1CCC2O (stereo unspecified) | 166 °C |
| O=C(O)CCCOc1ccccc1 | 63 °C |
| CC(=O)c1ccc(N=C=S)cc1 | 82 to 85 °C |
| Cc1cc(C)c2c(c1C)C(=O)C2 | 73 °C |
| FC(F)(F)C(F)(F)C(F)(F)c1cc(-c2ccccc2)[nH]n1 | 85 °C |
| O=C(Oc1ccc2ccccc2c1)c1cccc(S(=O)(=O)Oc2ccc3ccccc3c2)c1 | 172 °C |
| NC(=O)CCSCCC(N)=O | 183 to 186 °C |
| CCOC(=O)C=C(C)N | 33 to 35 °C |
| O=C1c2ccccc2C(=O)c2c1ccc([N+](=O)[O-])c2[N+](=O)[O-] | 341 °C |
| CC1(C)OC(=O)C(=NNc2ccc(Cl)cc2)C(=O)O1 | 156 °C |
| CNC(=O)n1cc(F)c(=O)[nH]c1=O | 226 °C |
| CCC(C(=O)O)C1(O)CCCCC1 (stereo unspecified) | 81.5 °C |
| COc1ccccc1NC(N)=S | 156 °C |
| Cc1nc(/C(C#N)=C\c2ccc(Cl)cc2Cl)sc1/N=N/c1ccc(F)cc1 | 138 to 140 °C |
| Cc1cccc(N(C)C(=S)Oc2ccc3c(c2)C2CCC3C2)c1 (stereo unspecified) | 93 °C |
| Cn1c(=O)c(C2=NNC(=O)C2=NNc2cccnc2)c(O)c2ccccc21 | 230 °C |
| CC(C)n1cc(C#N)c(=O)[nH]c1=O | 265 to 268 °C |
| COC(=O)C12ON1c1ccccc1C2=O (stereo unspecified) | 221 °C |
| O=[N+]([O-])c1ccccc1N1CCCCC1 | 77 to 79 °C |
| COc1ccc(C(O)C(=O)O)cc1O (racemic) | 125 to 132 °C |
| Cc1cc(C)n(CO)n1 | 109 °C |

| Structure (SMILES) | melting point |
| --- | --- |
| ClCCCCCCCCCCCl | 15.6 °C |
| CC(=O)OCCBr | -13.8 °C |
| CC12CCC(=O)C=C1CCC1C2C(O)CC2(C)C(C(=O)CO)CCC12 (stereo unspecified) | 181 °C |
| CSc1nc2nc(C)cc(C)c2c(=O)[nH]1 | 242 to 244 °C |
| c1ccc(NNc2ccccc2)cc1 | 131 °C |
| O=C1c2ccccc2C(=O)N1O | 233 to 235 °C |
| NC(=S)NN=C1C2CCCC1C1(O)CCCCC1C2 (stereo unspecified) | 184 °C |
| Nc1cc([N+](=O)[O-])c(/C=C/c2ccccc2)cc1/C=C/c1ccccc1 | 111 °C |
| CCCCCCCCCCCCCCCCCCCCCC(=O)OCC | 50 °C |
| CCCCCCCCCCCCCC(CCCCCCCCCCCC)CCCCCCCCCCCC | 13.7 °C |
| CC(=O)N[C@@H](CCCCN)C(=O)O | 256 to 258 °C |
| COc1ccccc1OCC(=O)O | 120 °C |
| COc1cccc(Nc2ccccc2)c1 | 73 °C |
| C[Si](O)(c1ccccc1)c1ccccc1 | 167 °C |
| Cc1ccc(C(N)=O)cc1[N+](=O)[O-] | 166 °C |
| O=C(O)C(O)c1ccc(F)cc1F (stereo unspecified) | 123 °C |
| COc1ccc2nc(C#N)sc2c1 | 128 to 131 °C |
| Cc1nc(-c2ccc(C(=O)O)cc2)no1 | 262 to 264 °C |
| O=C1OC(=O)C2CCC12 (stereo unspecified) | 73 to 76 °C |
| COc1ccc(CC(N)=S)cc1OC | 136 to 138 °C |
| COc1cc2ccc(=O)oc2cc1OC | 146 °C |
| O=C(O)c1ccc2c(c1)C(=O)c1ccccc1C2=O | 291 °C |

| Structure (SMILES) | melting point |
| --- | --- |
| CCSc1nnc(CCn2c(C)nc3ccccc32)n1-c1ccccc1 | 110 °C |
| CCCCCCCCCCCCC(CCCCCCCCCCC)CCCCCCCCCCCC | 9.7 °C |
| COc1ccccc1NC(=O)c1cnc(C(C)(C)C)cn1 | 78 °C |
| O=Cc1ccc2nonc2c1 | 58 °C |
| CCOc1ccc([C@]2(C(=O)N3CCC[C@H](C)[C@@H]3C)CC2(Cl)Cl)cc1 | 160 °C |
| CCCCC1C(=O)N(c2ccccc2)N(c2ccc(O)cc2)C1=O (stereo unspecified) | 124 °C |
| O=C(O)c1cc2cc(O)ccc2[nH]1 | 249 °C |
| Nc1ccc(OCCN2CCOCC2)cc1 | 53 to 57 °C |
| CCOC(=O)C1=C(C)OC(N)=C(C#N)C1c1ccc(N2CCOCC2)cc1 (stereo unspecified) | 152 to 159 °C |
| CC(=O)N1C(=O)[C@@](O)(c2coc3ccccc23)c2ccccc21 | 110 °C |
| CC(=O)CO | -17 °C |
| COc1ccc(-n2c(=S)[nH]c(=O)c3cccnc32)cc1 | 261 to 263 °C |
| CCOC(=O)CCCCCCCC(=O)OCC | -18.5 °C |
| Cc1cc2ncc(S(=O)(=O)C(C)(C)C)c(N)n2n1 | 206 to 208 °C |
| O=C1CCSc2ccccc21 | 29 °C |
| C=COC(=O)CCCCCCCCCCCCCCCCC | 36 °C |
| COc1ccc(OC)c(CCl)c1 | 69 to 71 °C |
| CCc1ccc(C(=O)NN)cc1 | 84 to 87 °C |
| CC(C)(C)c1ccc(CCOc2ncnc3ccccc23)cc1 | 80.5 °C |
| Clc1ccc(Cl)c(-c2nnn[nH]2)c1 | 157 °C |
| CN(C)c1ccc(N)c([N+](=O)[O-])c1 | 119 to 124 °C |
| Cn1c(=O)cc(O)c2ccccc21 | 264 to 266 °C |

| Structure (SMILES) | melting point |
| --- | --- |
| Cc1cc2cc3c(C)cc(=O)oc3c(C)c2o1 | 230 to 234 °C |
| COc1ccc(/N=N/c2c(N)nn3c(C(F)(F)F)cc(C)nc23)cc1 | 158 °C |
| CC(C)(C)c1ccc(C(N)=O)cc1 | 173 °C |
| CC1OC(Oc2c[nH]c3ccc(Br)c(Cl)c23)C(O)C(O)C1O (stereo unspecified) | 213 to 217 °C |
| O=[N+]([O-])c1ccc(O)c([N+](=O)[O-])c1 | 116 °C |
| O=C(O)c1cc(Cl)c(Cl)c(Cl)c1Cl | 194 °C |
| O=C(O)C1CCCCC1C(=O)OCCO (stereo unspecified) | 90 °C |
| CC1=C(C#N)C(c2cccc([N+](=O)[O-])c2)C(C(=O)OCCN(C)C)=C(C)N1 (stereo unspecified) | 72 to 73 °C |
| CC(C)(C)OC(=O)N1c2ccccc2CC1CO (stereo unspecified) | 84 to 89 °C |
| O=C(O)c1cc(Cl)c(Cl)cc1Cl | 166 °C |
| O=C(O)CCc1c(Cl)cccc1Cl | 95 to 97 °C |
| Cc1ccc(-c2ccc(/C=C3\C=C(CC(C)C)OC3=O)o2)cc1 | 78 °C |
| Fc1cc(F)c(F)c(-c2c(F)c(F)cc(F)c2F)c1F | 85 °C |
| O=Cc1cn(S(=O)(=O)c2ccccc2)c2ccccc12 | 156 to 157 °C |
| COC1CCCCCCCCCCC1 | 8 °C |
| O=Cc1ccc(-c2ccc(OC(F)(F)F)cc2)o1 | 87 to 88 °C |
| COc1cc2c(cc1OC)C(c1ccc(Cl)cc1)N(C(C)=O)CC2 (stereo unspecified) | 130 to 132 °C |
| Cc1cccc2c1C(=O)NC2=O | 183 to 189 °C |
| COc1cc(CC(=O)O)cc(OC)c1OC | 120 °C |
| O=C1CCCC(=O)O1 | 56.3 °C |
| COc1ccc(C(=O)Oc2ccc(/C=C/C(=O)c3ccccc3)cc2)cc1 | 156 °C |
| CCOP(=S)(OCC)Oc1ccc([N+](=O)[O-])cc1 | 6.1 °C |

| Structure (SMILES) | melting point |
| --- | --- |
| CCOC(=O)c1cc(C)n(-c2cc(C)n(C)n2)n1 | 72 °C |
| Cc1c(Cl)cccc1Cl | 25.8 °C |
| Cn1nnc2c1ccc(=O)n2C1OC(CO)C(O)C1O (stereo unspecified) | 211 °C |
| COc1cc([N+](=O)[O-])c(Cl)cc1NC(C)=O | 185 °C |
| COc1ccc2c(c1)CC(CCC(=O)O)(CCC(=O)O)C2=O | 151 °C |
| NC(=S)c1cc(Cl)nc(Cl)c1 | 145 to 150 °C |
| CNc1cnn(-c2cccc(C(F)(F)F)c2)c(=O)c1Cl | 184 °C |
| CSC(S)=Nc1ccc(Cl)cc1 | 112 to 113 °C |
| CCCc1c(O)ccc(C(C)=O)c1N | 95 to 97 °C |
| COC(=O)C1CC(=O)C(C(=O)OC)CC1=O (stereo unspecified) | 154 to 157 °C |
| CC(=O)c1nn2c(C(F)(F)F)nnc2s1 | 200 °C |
| O=C(Cl)c1ccccc1 | -1 °C |
| CC1CC1C (stereo unspecified) | -141 °C |
| Nc1nc(-c2ccc3c(c2)Cc2ccccc2-3)cs1 | 261 to 264 °C |
| CCCCCCCCCCCCCCCC(=O)CC | 51 °C |
| COc1ccc2c(c1)/C(=N/Nc1ccc([N+](=O)[O-])cc1[N+](=O)[O-])C2 | 220 to 222 °C |
| Cc1c(C(=O)O)nnn1-c1cccc(C(F)(F)F)c1 | 155 to 156 °C |
| COc1cccc(C2NC(=O)NC(C)=C2C(=O)OC(C)C)c1OC (stereo unspecified) | 167 °C |
| CC(C)c1ccccc1Br | -59 °C |
| O=C(O)C1(O)CC1 | 108 to 110 °C |
| Cc1sc2ccccc2c1CC1=NCCN1 | 156 °C |
